According to PMC5318439, “The Novel Toll-Like Receptor 2 Agonist SUP3 Enhances Antigen Presentation and T Cell Activation by Dendritic Cells” (Frontiers in Immunology, 2017):
Where a SMILES comes first, the peptide text is derived from it. The star is where a group is joined. X1 = CCCCCCCCCCCCCCNC(=O)OC[C@H](C*)OC(=O)NCCCCCCCCCCCCCC; Palmitoyl = CCCCCCCCCCCCCCCC(=O)*

How the values were obtained:
[1] = Antigen deposition (OVA-AF647) in draining lymph nodes; type: in vivo, mice; conditions: OVA-AF647 25 µg per mouse s.c. with 2 nmol per mouse, 24 h; vs OVA alone or OVA with Pam3
Experimental: Wild-type mice were s.c. injected with OVA-AF647 alone (25 µg per mouse; Molecular Probes O-34784), or mixtures of OVA-AF647 with SUP3 (2 nmol per mouse) or Pam3 (2 nmol per mouse) at groin. Inguinal lymph nodes were isolated 24 h post-injection, and then immune cells were analyzed by flow cytometry.
Figure 6 SUP3 enhanced antigen deposition in draining lymph nodes. Mice were immunized at groin by s.c. injection of ovalbumin (OVA)-Alexa Fluor 647 (AF647) (25 µg per mouse) with or without SUP3 (2 nmol per mouse) or Pam3 (2 nmol per mouse) for 24 h. Inguinal lymph nodes were isolated, and immune cells were analyzed for levels of AF647 fluorescence by flow cytometry (A). The number of OVA-AF647 positive cells was calculated in (B). Representative data were from two independent experiments with three mice in each group.

[2] = TD antigen (NP-KLH) immunization and antibody titer analysis; type: in vivo, mice; conditions: NP-KLH 5 µg per mouse i.p. with 2 nmol per mouse; serum ELISA weekly; vs Pam3
Experimental: Thymus-dependent antigen immunization and antibody titer analysis were performed as previously described ([43]). Briefly, wild-type (WT) mice were immunized by i.p. injection of TD antigen nitrophenyl-keyhole limpet hemocyanin (NP-KLH, 5 µg per mouse; Biosearch Technologies N-5060) alone, or mixed with SUP3 (2 nmol per mouse), Pam3 (2 nmol per mouse), or alum (3 µg per mouse; Thermo 77161). Serum was harvested every week, and nitrophenyl-specific IgM and IgG were determined by ELISA. IgM and total IgG were captured by nitrophenyl 30mer (Biosearch Technologies N-5050H), and high affinity IgG was captured by nitrophenyl 8mer (Biosearch Technologies N-5050L) pre-coated ELISA plates (Corning 9018).
Figure 5 SUP3 enhanced antigen presentation ability of CD11b^+ conventional dendritic cells (cDCs) and production of antibodies against thymus-dependent (TD) antigens. […] Three days after immunization, division of OT-II CD4^+ T cells from inguinal lymph nodes were analyzed by flow cytometry (B). Absolute numbers of proliferated OT-II CD4^+ T cells were calculated in (C). […] Cells were then thoroughly washed and cocultured with CFSE-stained OT-II CD4^+ T cells for 4 days and analyzed by flow cytometry. (D) The division of OT-II cells was measured by reduced level of CFSE-labeling. (E) Absolute numbers of proliferated T cells from (D) were calculated. […]

CCCCCCCCCCCCCCCC(=O)N[C@@H](CSC[C@@H](COC(=O)NCCCCCCCCCCCCCC)OC(=O)NCCCCCCCCCCCCCC)C(=O)NCC(=O)N[C@@H](CCCCN)C(=O)N[C@@H](CCCCN)C(=O)N[C@@H](CCCCN)C(=O)O [SUP3, (2S,5S,8S,14R,18R)-2,5,8-tris(4-aminobutyl)-4,7,10,13,21-pentaoxo-14-palmitamido-18-((tetradecylcarbamoyl)oxy)-20-oxa-16-thia-3,6,9,12,22-pentaazahexatriacontan-1-oic acid] (Palmitoyl-C(X1)GKKK-OH)
numbers of antigen-containing CD8+ cDCs, CD11b+ cDCs, macrophages, and monocytes in inguinal lymph nodes [1]: increased numbers | titers of TD antigen-specific antibodies (IgM, total IgG, high affinity IgG) [2]: higher titers
